Series [1] relates to PBMC (peripheral blood mononuclear cells). Nature of the series: two-way mixed lymphocyte reaction (MLR). The format is cell-based, human. To be noted: FIG. 1. The source says:
Various in vitro assays can be used to measure effects of the inventive compounds to module immune activity and have antitumor activity using a variety of cellular types. For example, a mixed lymphocyte reaction (MLR) provides a valuable screening tool to determine biological activity of each inventive compound. In the MLR, PBMCs (peripheral blood mononuclear cells) are obtained by drawing whole blood from healthy volunteers in a heparinized container and diluted with an equal volume of hanks balanced salt solution (HBSS). This mixture is layered on a sucrose density gradient, such as a Ficoll-Hypaque® gradient (specific gravity 1.08), and centrifuged at 1000× g for 25 minutes at room temperature or cooler. PBMC are obtained from a band at a plasma-Ficoll interface, separated and washed at least twice in a saline solution, such as HBSS. Contaminating red cells are lysed, such as by ACK lysis for 10 min at 37° C., and the PBMCs are washed twice in HBSS. The pellet of purified PBMCs is resuspended in complete medium, such as RPMI 1640 plus 20% human inactivated serum. Proliferative response of PBMC to allogeneic stimulation is determined in a two-way MLR performed in a 96-well microtiter plate. […] At the conclusion of the incubation tritiated thymidine is added (for example, 1 μCi/well of 40 to 60 Ci/mmole) and proliferation determined by liquid scintillation counting. […]

The test system of series [2] is IL-1α release in peritoneal macrophages. Nature of the series: IL-1α release in LPS activated PEC (ELISA). The format is cell-based, murine. To be noted: Mus musculus, Peritoneal macrophage, at 24 hours after LPS, FIG. 19, read-out: maximum inhibition of IL-1α release. On the procedure: Murine peritoneal exudate cell macrophages (PEC) were isolated by perfusion of mouse peritoneum and plated into 96-well trays at 5×10^5 cells per well. Cells were stimulated with 5 μg/ml Salmonella abortus equi -derived endotoxin (LPS; Sigma Chemical Co., L-1887) or […] IL-1α (Genzyme; Cambridge, Mass.) with or without the addition of CT1501R added to the cultures one hour prior to addition of the stimulus. At various times thereafter, supernatants were removed and levels of either TNF-α or IL-1α were assayed using commercial 96-well microtiter immunoassay kits (Genzyme; TNF; Endogen, Boston, Mass.; IL-1α) according to manufacturer's specifications. For the adhesion studies, early passage human umbilical vein endothelial cells (HUVEC) were obtained. from commercial suppliers (Clonetics, San Diego, Calif. or Cell Systems, Seattle, Wash.) and cultured in defined, Hepes buffered, serum free medium (Cell Systems, cat 301-180) supplemented with acidic FGF (Cell Systems cat 401-111). 4000 cells were plated into each well of a 96-well microtiter plate and allowed to incubate for 72 hrs at 37° C. […] After addition of […] Hanks Balanced Salt Solution (HBSS), the microtiter plate was then analyzed on a Millipore Cytofluor fluorescent plate reader (excitation 488 nm; emission 525 nm). […]
A general note: In an ELISA, binding on a coated surface is turned into a signal by an enzyme label.

A further series concerns murine B-cell. The series is described as follows: B-cell proliferation stimulated by anti-mu antibody and/or IL-4. The format is cell-based. To be noted: anti-mu antibody crosslinked and/or IL-4, FIG. 2. The method, then: A B-cell proliferation assay determines the effect of the inventive compounds on inhibiting proliferation of stimulated B-cells, stimulated by an anti-mu antibody (40 μg/ml), IL-4 or PMA (2.5 nM). Ramos B-cell tumor cells or murine splenocytes can be incubated with a stimulating agent, an inventive compound and tritiated thymidine to measure inhibition of cell proliferation caused by the stimulating agent.

For another series, the system named is Balb/C mice. The series is described as follows: 5-fluorouracil (5-FU) induced bone marrow suppression in mice. The format is in vivo, mouse. On the procedure:
This example illustrates the effect of CT1501R on 5-fluorouracil (5-FU) induced bone marrow suppression in mice. We determined if CT1501R influenced the time required for hematopoietic reconstitution following cytotoxic chemotherapy in a murine model. Female Balb/C mice (VAF, Charles River Laboratories, 6-8 wks of age approximately 17.3-18.5 g) were treated with 5-FU at adose of 200 mg/kg intraperitoneally (i.p.) in experiment 1 or […] in experiment 2. CT1501R or vehicle control was given at a dose of 100 μg/kg i.p. bid starting 1 day prior to 5-FU and was continued until the last mice were sacrificed on day 13 in experiment 1 and day 15 in experiment 2. Controls included mice treated with CT1501R or vehicle without 5-FU. Mice (4 per group) were sacrificed starting 2 days after 5-FU by cardiac puncture under halothane anesthesia followed by cervical dislocation and had total white blood cell counts and differential counts performed. Platelet counts were performed using phase-contrast microscopy in duplicate. Femurs were harvested and the number of granulocyte-macrophage colony forming cells (CFU-GM) per femur were measured using a standard assay (Terry Fox Laboratories, Vancouver, British Columbia) using pokeweed mitogen spleen conditioned medium as the growth factor. Each femur was plated separately in triplicate and the mean and means for each experimental point was calculated. Standard deviations used for statistical analysis were deviations of the mean number of colonies measured for each femur.
Experiment 2 was similar to experiment 1 with the following exceptions: (1) the dose of 5-FU was decreased to 185 mg/kg; (2) daily blood draws were performed between days 10 and 15; and (3) platelet counts were performed.

Turning to `C[C@@H](O)CCCCn1c(=O)c2c(ncn2C)n(C)c1=O` [CT1501R, (R)-1-(5-hydroxyhexyl)-3,7-dimethylxanthine], in series [1], the “proliferative response of PBMC to allogeneic stimulation” value is on record as “showed dose-response activity”. Besides, the inhibition at 250 µM in series [2] is about 50%. For the same compound, in the series on murine B-cell, the “inhibition of B-cell proliferation” value is recorded as “inhibited B-cell proliferation”. Further, the “mouse survival, Kaplan-Meier plot” value in the series on Balb/C mice (5-FU treated mice, FIG. 14) was “improved survival”. The “rise in ANC and CFU-GM/femur associated with vehicle injections” value in the series on Balb/C mice (animals that did not receive 5-FU) is “prevented both the rise in ANC and rise in CFU-GM/femur”. For the same compound, in the series on Balb/C mice (during hematopoietic recovery), the “increase in the number of CFU-GM/femur compared to control animals” value is “approximately two-fold”. For the same compound, in the series with Balb/C mice (experiment 1, day 13, vs vehicle control and day 0 animals), the CFU-GM/femur result is reported as “significantly more CFU-GM/femur on day 13”. For the same compound, the “mean ±SD ANC” value in the series on Balb/C mice (experiment 1, day 13 after 5-FU) is 440±17 /mm^3. Moreover, in the series with Balb/C mice (experiment 1, days 6 and 10), the “WBC of 5-FU treated mice” value is on record as “significantly lower in vehicle treated controls than in CT1501R treated mice”. In addition, in the series on Balb/C mice (experiment 2), the “number of cells per femur” value was “increased during hematopoietic recovery compared to control animals”. In addition, in the series on Balb/C mice (experiment 2, FIG. 10), the WBC entry is listed as “significantly higher WBC's”. Also, the “platelet count nadir and rate of recovery” value in the series on Balb/C mice (experiment 2, FIG. 11) is given as “increased compared to vehicle control animals”. Further, in the series with Balb/C mice (experiment 2, FIG. 12), the neutrophil recovery result is recorded as “accelerated”. Besides, in the series with Balb/C mice (mice without 5-FU, i.p. bid), the “WBC and ANC” value is “remained within 1 SD of control values”; the adverse effects result was “no apparent adverse effects”.

One may read the inhibition as the drop in the measured response relative to a control, in per cent.

Source of the values: patent US5567704A, “R-enatiomerically pure hydroxylated xanthine compounds to treat baldness” (priority 1995, dated 1996).
